From article PMC8848307 (Journal of medicinal chemistry, 2019)

Columns and labels:
STAT3 protein [1] = target: T1, STAT3 protein (Homo sapiens, UniProt P40763); experiment: Western blotting of STAT3 degradation in SU-DHL-1 cells; type: cell-based; conditions: SU-DHL-1 cells, ratio of DC50
STAT3 protein [2] = target: T1, STAT3 protein; experiment: Western blotting of STAT3 degradation in Molm-16 cells; type: cell-based; conditions: Molm-16 cells, ratio of DC50

T1 sequence (P40763 whole entry): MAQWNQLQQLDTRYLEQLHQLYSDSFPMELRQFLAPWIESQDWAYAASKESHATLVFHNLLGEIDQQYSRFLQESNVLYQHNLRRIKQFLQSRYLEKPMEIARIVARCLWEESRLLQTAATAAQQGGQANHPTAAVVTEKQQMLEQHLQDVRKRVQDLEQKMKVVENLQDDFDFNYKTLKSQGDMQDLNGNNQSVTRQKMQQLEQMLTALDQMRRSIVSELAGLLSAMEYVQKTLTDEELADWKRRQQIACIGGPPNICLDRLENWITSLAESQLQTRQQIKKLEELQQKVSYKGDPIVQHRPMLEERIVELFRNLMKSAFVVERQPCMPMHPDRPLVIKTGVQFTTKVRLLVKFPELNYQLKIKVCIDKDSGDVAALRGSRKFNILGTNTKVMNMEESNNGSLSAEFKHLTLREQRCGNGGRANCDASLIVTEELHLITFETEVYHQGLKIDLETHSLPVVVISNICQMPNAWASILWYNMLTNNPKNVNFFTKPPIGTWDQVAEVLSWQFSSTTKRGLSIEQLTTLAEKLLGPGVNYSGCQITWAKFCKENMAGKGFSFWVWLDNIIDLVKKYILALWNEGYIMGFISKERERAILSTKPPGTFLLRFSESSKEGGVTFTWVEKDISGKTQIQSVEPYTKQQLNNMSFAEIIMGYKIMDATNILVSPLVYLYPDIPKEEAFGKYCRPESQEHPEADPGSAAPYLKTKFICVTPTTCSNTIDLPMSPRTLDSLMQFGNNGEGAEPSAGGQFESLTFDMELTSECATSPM

SMILES	times less potent than SD-36 in STAT3 degradation (STAT3 protein [1])	times less potent than SD-36 in STAT3 degradation (STAT3 protein [2])
NC(=O)CC[C@H](NC(=O)[C@@H]1CC[C@@H]2CCN(CCCCCCC#Cc3cccc4c3CN(C3CCC(=O)NC3=O)C4=O)C[C@H](NC(=O)c3cc4cc(C(F)(F)P(=O)(O)O)ccc4[nH]3)C(=O)N21)C(=O)NC(c1ccccc1)c1ccccc1 (stereo partly drawn) [Compound 17, ((2-(((5S,8S,10aR)-8-(((S)-5-Amino-1-(benzhydrylamino)-1,5-dioxopentan-2-yl)carbamoyl)-3-(8-(2-(2,6-dioxopiperidin-3-yl)-1-oxoisoindolin-4-yl)oct-7-yn-1-yl)-6-oxodecahydropyrrolo[1,2-a][1,5]diazocin-5-yl)carbamoyl)-1H-indol-5-yl)difluoromethyl)phosphonic Acid]	30 times	> 10 times
NC(=O)CC[C@H](NC(=O)[C@@H]1CC[C@@H]2CCN(C(=O)OCCCCC#Cc3cccc4c3CN(C3CCC(=O)NC3=O)C4=O)C[C@H](NC(=O)c3cc4cc(C(F)(F)P(=O)(O)O)ccc4[nH]3)C(=O)N21)C(=O)NC(c1ccccc1)c1ccccc1 (stereo partly drawn) [Compound 18, ((2-(((5S,8S,10aR)-8-(((S)-5-Amino-1-(benzhydrylamino)-1,5-dioxopentan-2-yl)carbamoyl)-3-(((6-(2-(2,6-dioxopiperidin-3-yl)-1-oxoisoindolin-4-yl)hex-5-yn-1-yl)oxy)carbonyl)-6-oxodecahydropyrrolo[1,2-a][1,5]diazocin-5-yl)carbamoyl)-1H-indol-5-yl)difluoromethyl)phosphonic Acid]	2 times	–
NC(=O)CC[C@H](NC(=O)[C@@H]1CC[C@@H]2CCN(C(=O)CCCCCCNc3cccc4c3CN(C3CCC(=O)NC3=O)C4=O)C[C@H](NC(=O)c3cc4cc(C(F)(F)P(=O)(O)O)ccc4[nH]3)C(=O)N21)C(=O)NC(c1ccccc1)c1ccccc1 (stereo partly drawn) [Compound 26, ((2-(((5S,8S,10aR)-8-(((S)-5-Amino-1-(benzhydrylamino)-1,5-dioxopentan-2-yl)carbamoyl)-3-(7-((2-(2,6-dioxopiperidin-3-yl)-1-oxoisoindolin-4-yl)amino)heptanoyl)-6-oxodecahydropyrrolo[1,2-a][1,5]diazocin-5-yl)carbamoyl)-1H-indol-5-yl)difluoromethyl)phosphonic Acid]	–	2–3 times
NC(=O)CC[C@H](NC(=O)[C@@H]1CC[C@@H]2CCN(C(=O)CCCCCC#Cc3ccc4c(c3)CN(C3CCC(=O)NC3=O)C4=O)C[C@H](NC(=O)c3cc4cc(C(F)(F)P(=O)(O)O)ccc4[nH]3)C(=O)N21)C(=O)NC(c1ccccc1)c1ccccc1 (stereo partly drawn) [Compound 28, ((2-(((5S,8S,10aR)-8-(((S)-5-Amino-1-(benzhydrylamino)-1,5-dioxopentan-2-yl)carbamoyl)-3-(8-(2-(2,6-dioxopiperidin-3-yl)-1-oxoisoindolin-5-yl)oct-7-ynoyl)-6-oxodecahydropyrrolo-[1,2-a][1,5]diazocin-5-yl)carbamoyl)-1H-indol-5-yl)difluoromethyl)phosphonic Acid]	–	5–10 times
NC(=O)CC[C@H](NC(=O)[C@@H]1CC[C@@H]2CCN(C(=O)CCCCCC#Cc3ccc4c(c3)C(=O)N(C3CCC(=O)NC3=O)C4)C[C@H](NC(=O)c3cc4cc(C(F)(F)P(=O)(O)O)ccc4[nH]3)C(=O)N21)C(=O)NC(c1ccccc1)c1ccccc1 (stereo partly drawn) [Compound 29, ((2-(((5S,8S,10aR)-8-(((S)-5-Amino-1-(benzhydrylamino)-1,5-dioxopentan-2-yl)carbamoyl)-3-(8-(2-(2,6-dioxopiperidin-3-yl)-3-oxoisoindolin-5-yl)oct-7-ynoyl)-6-oxodecahydropyrrolo-[1,2-a][1,5]diazocin-5-yl)carbamoyl)-1H-indo 1–5-yl)difluoromethyl)phosphonic Acid]	–	5–10 times
